According to patent US8629164B2, “Inhibitors of NF-κB” (Profectus Biosciences, Inc., priority 2009, dated 2014):
pEC50, pIC50: −log10 of the molar value. “Also recorded” adds a separate entry of the source.

Tests used:
[1] = molecular target: T1, RelB (Homo sapiens, UniProt Q01201); test: TransAM NF-κB Family DNA Binding ELISA, RelB; details: for IC50: RelB binding IC50 (uM), cells without % sign
T1 sequence (Q01201 1-579): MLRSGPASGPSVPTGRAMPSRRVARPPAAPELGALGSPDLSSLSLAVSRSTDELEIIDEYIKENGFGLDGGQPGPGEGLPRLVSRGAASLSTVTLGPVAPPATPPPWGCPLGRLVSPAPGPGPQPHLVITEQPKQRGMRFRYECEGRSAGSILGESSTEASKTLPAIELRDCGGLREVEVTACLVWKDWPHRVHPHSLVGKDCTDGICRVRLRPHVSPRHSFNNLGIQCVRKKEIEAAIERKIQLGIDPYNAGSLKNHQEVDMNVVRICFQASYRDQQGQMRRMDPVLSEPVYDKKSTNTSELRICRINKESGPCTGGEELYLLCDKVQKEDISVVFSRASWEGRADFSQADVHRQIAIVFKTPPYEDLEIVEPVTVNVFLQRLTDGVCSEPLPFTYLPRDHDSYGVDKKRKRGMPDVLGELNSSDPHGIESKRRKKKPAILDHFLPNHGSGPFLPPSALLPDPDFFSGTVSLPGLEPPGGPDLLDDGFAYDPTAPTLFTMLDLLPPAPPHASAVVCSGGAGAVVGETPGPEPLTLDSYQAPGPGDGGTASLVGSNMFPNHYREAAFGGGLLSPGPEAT
T1 sequence (Q00653 1-454 partner limits assumed): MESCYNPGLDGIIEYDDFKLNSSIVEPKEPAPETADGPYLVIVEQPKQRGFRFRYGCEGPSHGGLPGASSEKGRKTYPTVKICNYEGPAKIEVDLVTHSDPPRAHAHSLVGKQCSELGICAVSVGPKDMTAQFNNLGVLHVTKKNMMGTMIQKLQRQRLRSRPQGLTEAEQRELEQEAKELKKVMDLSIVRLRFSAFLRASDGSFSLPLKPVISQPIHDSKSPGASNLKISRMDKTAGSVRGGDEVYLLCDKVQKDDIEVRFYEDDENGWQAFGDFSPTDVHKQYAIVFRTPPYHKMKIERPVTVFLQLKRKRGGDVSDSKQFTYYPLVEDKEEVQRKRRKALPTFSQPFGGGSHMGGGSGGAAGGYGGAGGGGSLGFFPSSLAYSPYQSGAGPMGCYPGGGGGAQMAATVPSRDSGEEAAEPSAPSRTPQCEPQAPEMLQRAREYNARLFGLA

[2] = test system: soluble IL-2Rα; test: Soluble IL-2Rα expression in PHA-P activated hPBMCs; type: cell-based, human; details: 10 μM, three days
Procedure: The graph is the mean of 2 independent experiments.
Soluble IL-2Rα is transcriptionally regulated by NF-κB. […] Human PBMCs were treated with 0, 0.2, 1, 10, 20 and 40 μM of the compound of Example 1 concurrent with PHA-P activation. The cells were cultured for an additional three days and media was harvested for marker assessment.

[3] = test system: IL-6 secretion from MDA-MB-231 cells; test: IL-6 secretion from MDA-MB-231 cells; type: cell-based
Procedure: (§1) Specifically, A and B show the effects of the compound of Example 1 on IL-6 and IL-8 secretion from MDA-MB-231 cells stimulated by 20 ng/mL TNF-α. The cells were treated with the indicated concentrations of the compound of Example 1 for 2 hours, and then TNF-α was added and incubation continued for 4 hours.

[4] = test system: human peripheral blood mononuclear cells (hPBMCs); test: Cytotoxicity to hPBMCs (CellTiter-Glo); type: cell-based
Procedure: Human peripheral blood mononuclear cells (hPBMCs) were treated with example 1 or DHMEQ and the percentage of viable cells was assessed 24 hours post drug treatment. The graph represents the mean±the standard deviation of three replicate experiments.
The cytotoxicity profile of the compound of Example 1. The cytotoxicity of the compound of Example 1 was determined for human peripheral blood mononuclear cells (hPBMCs). As with the activity assay, the hPBMCs were treated with 0, 0.2, 1, 10, 20 and 40 μM of the compound of Example 1 for 2 hours, and then induced with 20 ng/ml TNF-α for 48 hours. The number of viable cells was determined using CellTiter-Glo luminescent cell viability assay (Promega (cat #G7573)). […] The selectivity index (the ratio of cytotoxicity CC50 to inhibitory IC50) is assigned to the compound of Example 1.

[5] = test system: COX-2 expression; test: LPS-induced COX-2 expression in RAW264.7 cells; type: cell-based, mouse; details: pretreatment, at 6 to 12 h
From the text: (§2) LPS stimulation induces the expression of COX-2 the enzyme responsible for prostaglandin E2.

[6] = test system: PGE2 release from RAW264.7 cells; test: PGE2 release from LPS stimulated RAW264.7 cells; type: cell-based, mouse; details: for pEC50: Mus musculus, RAW264.7, RAW 264.7 cells
Procedure: as §1, with “soluble PGE2” for “IL-6”, “Il-6” for “IL-8”, “RAW264.7” for “MDA-MB-231”, “1 μg/mL of LPS.” for “20 ng/mL TNF-α.”, “LPS” for “TNF-α”
as §2

[7] = test system: IL-8 secretion from MDA-MB-231 cells; test: IL-8 secretion from MDA-MB-231 cells; type: cell-based
Procedure: as §1

[8] = test system: NF-κB; test: NF-κB DNA binding activity of p65+/+ MEF nuclear extract after IR; details: p65+/+ MEFs
[9] = test system: MDA-MB-231 breast cancer cells; test: Cytotoxicity and radio-sensitization in MDA-MB-231 breast cancer cells; type: cell-based
[10] = test system: mouse embryonic fibroblasts (MEFs)
[11] = test system: human RPMI8226 multiple myeloma; test: RPMI8226 multiple myeloma xenograft in mice; type: in vivo
Procedure: Neither PS-341 (1 mg/kg iv days 1, 4/week×4 weeks) nor the compound of Example 2 (15 mg/kg ip QD×21) treatment achieved statistical significant tumor growth inhibition in this study as compared to vehicle treatment (P>0.10).
Several compounds have been assessed for efficacy studies in rodent disease models. We first sought to obtain in vivo efficacy of the compounds in multiple myeloma which has high incidence of constitutive activation of both the canonical and non-canonical pathways.

[12] = test system: NF-κB; test: NF-κB-dependent luciferase expression after IR in p65+/+ MEFs; details: 10 Gy IR
[13] = 20 μM, TNF-α 20 ng/mL, MDA-MB-231

For O=C(NC1=CC(=O)C2OC2C1O)c1cccnc1O (racemic) [Example 1, (±)-2-hydroxy-N-(2-hydroxy-5-oxo-7-oxabicyclo[4.1.0]hept-3-en-3-yl)nicotinamide], which IC50 [1] is on record?
The IC50 was 7.4 µM.

What about the “effect on sIL-2Rα” value [2] of the same compound?
Its value is “statistically significant affect”.

And the “IL-6 secretion, TNF-α stimulated” value [3, 13]?
The value was “completely inhibited”.

And the “inhibition of constitutive IL-6 secretion” value ([3]; MDA-MB-231, unstimulated)?
The value was “dose-dependent manner”.

And the “selectivity (cytotoxicity CC50 to inhibitory IC50) compared to DHMEQ” value [4]?
Its value is “greater selectivity”.

And the “cytotoxicity to hPBMCs” value ([4]; up to 40 μM tested)?
The value was “little detectable toxicity; also recorded: little cytotoxic effect”.

What about the “LPS-induced COX-2 expression” value [5] of the same compound?
Its value is “strong inhibition”.

And the “decrease in downstream PGE2 synthesis” value ([6]; LPS stimulated, FIG. 5A)?
Its value is “dose dependent”.

And the pEC50 [6]?
Its pEC50 is 5.16.

And the “IL-8 secretion, TNF-α stimulated” value [7, 13]?
The value was “completely inhibited”.

And the “inhibition of constitutive IL-8 secretion” value ([7]; MDA-MB-231, unstimulated)?
Its value is “dose-dependent manner”.

With O=C(NC1=CC(=O)C2OC2C1O)c1cc2ccccc2nc1O (racemic) [Example 2, (±)-2-hydroxy-N-(2-hydroxy-5-oxo-7-oxabicyclo[4.1.0]hept-3-en-3-yl)quinoline-3-carboxamide] as the compound, how does the IC50 [1] read?
Its IC50 is 2 µM.

And the pIC50 ([1]; RelB binding to DNA IC50, FIG. 8, non-canonical pathway)?
Its pIC50 is roughly 5.70.

What about the “nuclear extract NF-κB DNA binding activities after IR” value [8] of the same compound?
The value was “significantly decreased”.

And the “enhancement of radiation effect” value ([9]; 0.2 μM, MDA-MB-231)?
Its value is 1.5 fold.

And the “LD50 of IR + compound” value ([9]; 0.2 μM, MDA-MB-231, IR alone 2.55 Gy)?
The value was 1.66 Gy.

What about the “LD50, single agent cytotoxic effect” value ([9]; MDA-MB-231 cells) of the same compound?
Its value is 0.4 µM.

What about the pEC50 [6] of the same compound?
The pEC50 was 5.74.

And the “cytotoxicity to MEFs” value ([10]; 1.4 μM)?
Its value is “non-cytotoxic”.

What about the “radio-sensitivity of PARP-1+/+ MEFs to IR” value ([10]; 1.4 μM) of the same compound?
The value was “increased radio-sensitivities”.

And the “LD50 of IR + compound” value ([10]; p65+/+ MEFs, 1.4 μM, IR alone 2.3 Gy)?
The value was 1.5 Gy.

What about the “radio-sensitization of p65−/− MEFs” value ([10]; p65−/− MEFs) of the same compound?
Its value is “no further effect”.

What about the “RPMI8226 tumor growth reduction” value ([11]; Example 2 15 mg/kg ip QD×21, xenograft mice, 15 mg/kg) of the same compound?
Its value is “same level of tumor growth reduction as PS-341; also recorded: reduced RPMI8226 tumor growth”.

And the “tolerability in xenograft model” value ([11]; mouse, in vivo)?
Its value is “better tolerated than PS-341”.

What about the “NF-κB-dependent luciferase expression after IR” value [12] of the same compound?
The value was “reduced luciferase gene transcription significantly; also recorded: significantly reduced luciferase expression”.
